Like-named read-outs stand apart in the source and are kept apart here. Where a SMILES comes first, the peptide text is derived from it. Where no end group is shown, it is not given here.

The values below come from PMC7915682, “Pursuing Orally Bioavailable Hepcidin Analogues via Cyclic N-Methylated Mini-Hepcidins” (Biomedicines, 2021).

Series [1] deals with T1, GFP-tagged ferroportin (FPN) (Homo sapiens, UniProt Q9NP59).
T1 construct: expressed in transfected cells
T1 sequence (Q9NP59 1-571): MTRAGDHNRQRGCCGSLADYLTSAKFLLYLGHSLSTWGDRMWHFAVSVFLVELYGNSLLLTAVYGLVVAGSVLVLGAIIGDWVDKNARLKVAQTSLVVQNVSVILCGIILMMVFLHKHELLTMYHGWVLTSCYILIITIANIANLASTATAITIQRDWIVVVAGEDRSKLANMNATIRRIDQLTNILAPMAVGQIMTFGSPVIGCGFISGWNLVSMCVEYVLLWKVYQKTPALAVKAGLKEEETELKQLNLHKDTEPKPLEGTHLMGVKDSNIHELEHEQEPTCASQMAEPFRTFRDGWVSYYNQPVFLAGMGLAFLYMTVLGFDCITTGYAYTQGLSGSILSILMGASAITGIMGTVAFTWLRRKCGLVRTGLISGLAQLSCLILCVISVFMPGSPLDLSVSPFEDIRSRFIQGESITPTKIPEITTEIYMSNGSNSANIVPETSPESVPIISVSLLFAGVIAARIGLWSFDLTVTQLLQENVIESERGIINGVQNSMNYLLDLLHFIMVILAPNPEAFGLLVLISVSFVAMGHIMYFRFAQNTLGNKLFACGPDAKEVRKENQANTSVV
Briefly: FPN-GFP degradation (internalisation) assay by flow cytometry in HEK293:T-REx-FPN-GFP cells. It counts as cell-based. Conditions: 24 h treatment; for EC50: FPN degradation dose-response, HEK293:T-REx-FPN-GFP cells; for FPN Degradation % ± SEM: peptide 10 μM, normalised with respect to hepcidin (1 μM), n = 3. The procedure:
HEK293:T-REx^TM-FPN-GFP cells, described previously, were cultured in T75 flasks containing FPN-GFP media (Dulbecco’s Modified Eagle’s Medium (DMEM) containing high glucose, GlutaMAX^TM supplement, hydroxyethyl piperazineethanesulfonic acid (HEPES), 10% tetracycline screened foetal bovine serum (FBS), 1% penicillin/streptomycin, and 100 μg/mL of hygromycin) and maintained at 37 °C in a humidified atmosphere of 5% CO2.
HEK293:T-REx^TM-FPN-GFP cells were plated in FPN-GFP media in the presence of 20 µM FAC (ferric ammonium citrate = ammonium iron (III) citrate) and induced on the following day with 50 ng/mL of doxycycline hydrochloride. After 24 h, doxycycline hydrochloride was washed off with PBS (phosphate buffered saline) and the cells were treated with peptides for another 24 h. Cells were then trypsinised, centrifuged (5 min at 1000 rpm), and resuspended in PBS at approximately 1 × 10^4 cell/µL. The intensity of green fluorescence was measured by flow cytometry performed on a Becton Dickinson LSR Fortessa-X-20. Cells not induced with doxycycline hydrochloride were used to establish a gate to exclude background fluorescence, and cells induced to express FPN-GFP but not treated with any peptides were used as the positive control. Each peptide treatment was repeated independently at least three times except for the initial screening of the mono N-methylated analogues (Figure 2), which was only performed once. The results were expressed as the % of the reduction in fluorescence with respect to hepcidin-treated cells according to the following formula: % FPN Degradation = (1 − (average FHepc − Fχ)/(average FHepc − average Funtreated)) × 100, where F corresponds to the GFP gate median, and χ to the peptide analysed.
Peptide bioactivity was measured using HEK293:T-REx^TM-FPN-GFP cells stably expressing a GFP-tagged ferroportin (FPN) construct that was treated overnight with different concentrations of hepcidin or analogues. FPN-GFP expression and FPN-GFP internalisation and degradation in response to hepcidin treatment were confirmed by confocal microscopy, and the % of GFP fluorescence was then analysed by flow cytometry and expressed as a % FPN degradation. […] This promising result led us to design a second series of analogues that included multiple N-methylated residues with and without backbone cyclisation.

Series [2] in a line: Serum stability assay (25% human male serum, 37 °C, LC-MS). It counts as in vitro ADME. On the procedure: Human male serum was centrifuged at 20,000 g for 10 min and the clear part of the supernatant was then diluted to 25% (v/v) with Milli-Q® water and incubated at 37 °C for 15 min. Each peptide sample was dissolved in triplicate at a final concentration of 20 μM in pre-incubated 25% serum, or Milli-Q® water as a control. […] Supernatant was then removed and transferred into vials for liquid chromatography mass spectrometry (LC-MS) analysis (50 μL injection and multiple reaction monitoring (MRM) protocol, Table S2). The effect of these strategies on the stability of mini-hepcidin analogues was investigated by incubating selected derivatives in human male serum at 37 °C and collecting samples at various time points. The results were then quantitated by liquid chromatography-mass spectrometry (LC-MS). We were unable to determine the serum stability of all analogues as the recovery from serum and detection of the peptides was very low. Modification of sample preparation protocols, optimisation of LC/MS conditions, and reducing serum concentration to 25% were unable to improve yield/detection. We would predict that this poor recovery is due to high binding of peptides to serum proteins, which is consistent with native hepcidin, which binds to α-2-macroglobulin [35, 36]. […] Effect of macrocyclisation and N-methylation on the stability of selected mini- hepcidin derivatives. A) Illustration of sites most susceptible to enzymatic attack in mini- hepcidin derivatives. B) Serum stability analysis of selected […]. Human male serum was centrifuged at 20,000 g for 10 minutes and the clear part of the supernatant was then diluted to 25% (v/v) with Milli-Q® water and incubated at 37 °C for 15 minutes. Each peptide sample was dissolved in triplicate at a final concentration of 20 μM in pre-incubated 25% serum, or Milli-Q® water as a control. Aliquots of 100 μL were removed at different time points and quenched with 100 μL of 15% trichloroacetic acid (TCA), followed by […] Supernatant was then removed and transferred into vials for liquid chromatography mass spectrometry (LC- MS) analysis (50 μL injection and multiple reaction monitoring (MRM) protocol). Error bars […] Comparison between Hep9, 2, […]9, 9. (also on this page, place not known: […] Hep9 2 […]] 7 Proteolytic attack Reduced proteolytic attack Blocked proteolytic attack 0 50 100 150 200 0 50 100 Time /min % Peptide Remaining 2 9 A B 7) (1 picture or pasted object on this page, not shown here)

The subject of another series is Caco-2. Briefly: Caco-2 in vitro model (preliminary). In kind it is in vitro ADME. Conditions: preliminary results, data not shown. The text has this:
It has been proposed that by enhancing the lipophilicity of peptides, the intestinal permeability could be improved by facilitating transcellular absorption (passive diffusion). Thus, our rationale was to improve the permeability of Hep9 2, by increasing its lipophilicity via both cyclisation and multiple N-methylations. […] Cyclisation and N-methylation appear to facilitate the crossing of the artificial lipid membrane for cHep9[Ser^1, MeThr^2, MeIle^8] 13, but this enhancement was not statistically significant relative to atenolol, a marker for poor transcellular permeability, or Hep9 2, (Figure 5). […] Preliminary results from a Caco-2 in vitro model were consistent with the PAMPA data (data not shown).

As a reminder, the EC50 is the concentration needed to bring the measured effect to its halfway point. Higher therefore signals a less potent agent. Turning to `CC[C@H](C)[C@@H]1NC(=O)[C@@H](NC(=O)[C@@H](NC(=O)[C@@H]2CCCN2C(=O)[C@H](Cc2ccccc2)NC(=O)[C@H](Cc2c[nH]cn2)NC(=O)[C@@H](NC(=O)[C@@H](N)CC(=O)O)[C@@H](C)O)[C@@H](C)CC)CSSC[C@@H](C(=O)N[C@@H](CCCCN)C(=O)N[C@H](C(=O)O)[C@@H](C)O)NC(=O)[C@@H]2CSSC[C@@H]3NC(=O)[C@@H]4CSSC[C@H](NC(=O)[C@H](Cc5ccccc5)NC1=O)C(=O)N[C@@H](CSSC[C@H](NC(=O)[C@H](CCCCN)NC(=O)[C@H](CO)NC(=O)[C@H](CCCNC(=N)N)NC(=O)[C@H](Cc1c[nH]cn1)NC3=O)C(=O)NCC(=O)N[C@@H](CCSC)C(=O)N2)C(=O)NCC(=O)N4` [Peptide 1, reference compound], in series [1], the EC50 is 0.00938 µM and the “FPN Degradation % ± SEM” value is given as 100 ± 2.6%.

As a reminder, the half-life is the time in which the quantity being followed falls by half. `CC[C@H](C)[C@H](NC(=O)[C@H](CS)NC(=O)[C@@H](NC(=O)[C@@H]1CCCN1C(=O)[C@H](Cc1ccccc1)NC(=O)[C@H](Cc1c[nH]cn1)NC(=O)[C@@H](NC(=O)[C@@H](N)CC(=O)O)[C@@H](C)O)[C@@H](C)CC)C(=O)N[C@@H](Cc1ccccc1)C(=O)O` [Peptide 2, reference compound]: the half-life at 20 μM in series [2] (male, human, serum) was ~3 min. Besides, the EC50 in series [1] is 2.11 µM. As for `CC[C@H](C)[C@H](NC(=O)[C@H](CS)NC(=O)[C@H]([C@@H](C)CC)N(C)C(=O)[C@@H]1CCCN1C(=O)[C@H](Cc1ccccc1)NC(=O)[C@H](Cc1c[nH]cn1)NC(=O)[C@H]([C@@H](C)O)N(C)C(=O)[C@@H](N)CO)C(=O)N[C@@H](Cc1ccccc1)C(=O)O` [Peptide 5, S[N-Me T]HFP[N-Me I]CIF] (HELM PEPTIDE1{S.[meT].H.F.P.[meI].C.I.F}$$$$V2.0; N-terminus assumed), it took 40.7 µM to reach a half-maximal effect in series [1] (EC50). That is a double-digit micromolar value. For the compound `CC[C@H](C)[C@H](NC(=O)[C@@H]1CCCN1C(=O)[C@H](Cc1ccccc1)NC(=O)[C@H](Cc1c[nH]cn1)NC(=O)[C@H]([C@@H](C)O)N(C)C(=O)[C@@H](N)CO)C(=O)N[C@@H](CS)C(=O)N(C)[C@H](C(=O)N[C@@H](Cc1ccccc1)C(=O)O)[C@@H](C)CC` [Peptide 6, S[N-Me T]HFPIC[N-Me I]F] (HELM PEPTIDE1{S.[meT].H.F.P.I.C.[meI].F}$$$$V2.0; N-terminus assumed), in series [2] (25% (v/v) human male serum, 20 μM peptide in 25% human male serum, 37 °C, read-out: peptide half-life in serum), the half-life at 20 μM was ~12 min. Further, the “stability relative to Hep9” value in series [2] (25% human male serum, 37 °C, ratio of half-lives) is “approximately four”. The EC50 in series [1] is 2.17 µM.

For `CC[C@H](C)[C@@H](C(=O)N[C@@H](Cc1ccccc1)C(=O)O)N(C)C(=O)[C@H](CS)NC(=O)[C@H]([C@@H](C)CC)N(C)C(=O)[C@@H]1CCCN1C(=O)[C@H](Cc1ccccc1)NC(=O)[C@H](Cc1c[nH]cn1)NC(=O)[C@H]([C@@H](C)O)N(C)C(=O)[C@@H](N)CO` [Peptide 7, S[N-Me T]HFP[N-Me I]C[N-Me I]F] (HELM PEPTIDE1{S.[meT].H.F.P.[meI].C.[meI].F}$$$$V2.0; N-terminus assumed), the EC50 in series [1] is 1.89 µM. Turning to `CC[C@H](C)[C@@H]1NC(=O)[C@H](CS)NC(=O)[C@H]([C@@H](C)CC)NC(=O)[C@@H]2CCCN2C(=O)[C@H](Cc2ccccc2)NC(=O)[C@H](Cc2c[nH]cn2)NC(=O)[C@H]([C@@H](C)O)NC(=O)[C@H](CC(=O)O)NC(=O)[C@H](Cc2ccccc2)NC1=O` [Peptide 8], the half-life at 20 μM in series [2] (serum (25% v/v), 20 μM peptide in 25% human male serum, 37 °C, read-out: peptide half-life in serum) was ~8 min.

`CC[C@H](C)[C@@H]1NC(=O)[C@H](CS)NC(=O)[C@H]([C@@H](C)CC)NC(=O)[C@@H]2CCCN2C(=O)[C@H](Cc2ccccc2)NC(=O)[C@H](Cc2c[nH]cn2)NC(=O)[C@H]([C@@H](C)O)NC(=O)[C@H](CO)NC(=O)[C@H](Cc2ccccc2)NC1=O` [Peptide 9] (HELM PEPTIDE1{C.I.F.S.T.H.F.P.I}$PEPTIDE1,PEPTIDE1,1:R1-9:R2$$$V2.0) showed an EC50 in series [1] of 0.266 µM. The same measure, in the same setting: next, `CC[C@H](C)[C@@H]1NC(=O)[C@H](CS)NC(=O)[C@H]([C@@H](C)CC)NC(=O)[C@@H]2CCCN2C(=O)[C@H](Cc2ccccc2)NC(=O)[C@H](Cc2c[nH]cn2)NC(=O)[C@H]([C@@H](C)O)NC(=O)[C@H](CC(=O)O)NC(=O)CNC(=O)CNC(=O)CNC(=O)CNC(=O)[C@H](Cc2ccccc2)NC1=O` [Peptide 10] (HELM PEPTIDE1{C.I.F.G.G.G.G.D.T.H.F.P.I}$PEPTIDE1,PEPTIDE1,1:R1-13:R2$$$V2.0): 0.158 µM; `CC[C@H](C)[C@H]1C(=O)N[C@@H](Cc2ccccc2)C(=O)N[C@@H](CC(=O)O)C(=O)N[C@@H]([C@@H](C)O)C(=O)N[C@@H](Cc2c[nH]cn2)C(=O)N[C@@H](Cc2ccccc2)C(=O)N2CCC[C@H]2C(=O)N(C)[C@@H]([C@@H](C)CC)C(=O)N[C@@H](CS)C(=O)N1C` [Peptide 12, c(DTHFP[N-Me I]C[N-Me I]F)]: 2.9 µM. As to `CC[C@H](C)[C@@H]1NC(=O)[C@@H]2CCCN2C(=O)[C@H](Cc2ccccc2)NC(=O)[C@H](Cc2c[nH]cn2)NC(=O)[C@H]([C@@H](C)O)N(C)C(=O)[C@H](CO)NC(=O)[C@H](Cc2ccccc2)NC(=O)[C@H]([C@@H](C)CC)N(C)C(=O)[C@H](CS)NC1=O` [Peptide 13, c(S[N-Me T]HFPIC[N-Me I]F)] (HELM PEPTIDE1{S.[meT].H.F.P.I.C.[meI].F}$PEPTIDE1,PEPTIDE1,1:R1-9:R2$$$V2.0), in the series on Caco-2, the “Caco-2 permeability” value is reported as “paralleled these observations”. The compound further showed an EC50 in series [1] of 0.14 µM. With DTHFP[N-Me I]C[N-Me I]F [Peptide 4], the “FPN Degradation % ± SEM” value in series [1] is reported as “Not active”.

In turn, STHFPICIF-OH [Peptide 3] had an EC50 in series [1] of 0.326 µM. Turning to c(DTH[N-Me F]PICI[N-Me F]) [Peptide 11], the “FPN Degradation % ± SEM” value in series [1] is 63 ± 1.6%.
